Patent US10945932B2, “Prebiotic oral care compositions containing carboxylic acids” (COLGATE-PALMOLIVE COMPANY, priority 2013, dated 2021)
Where two headings read alike, the source gives them in different places.

How the values were obtained:
[1] = tested on: Aggregatibacter actinomycetemcomitans; settings: A actinomycetemcomitans, BHI
Method: (§2) Late exponential growth phase liquid cultures were prepared by transferring the respective bacterium from blood agar plates to BHI and overnight incubation at 37° C. in an anaerobic atmosphere for A. viscosus, V. parvula, F. nucleatum, P. gingivalis, P. intermedia, T forsythia, A. naeslundii, and C. sputigena, and in a 5% CO2 environment for S. salivarius, S. sanguinis, S. mitis, A. actinomycetemcomitans, S. mutans, S. sobrinus and S. gordonii. Overnight cultures were transferred to BHI and adjusted to a concentration of 1×10^7 CFU/ml (colony forming units per ml) by measuring the optical density at 600 nm (OD600) (BioRad SmartSpec 3000). For each strain, 200 μl of the bacterial suspension was added to a 96-well plate containing 20 μl of the respective carboxylic acids. Final concentrations of the carboxylic acids were set to 5, 10, 20 and 25 μmol/ml. […] Plates were incubated as previously described.
(§3) For each combination of bacterium/carboxylic acid, and for each of their respective controls (i.e. the particular bacterium in the nutritionally rich medium with no carboxylic acid), the optical density was measured at 630 nm (OD630) at 0 h, 24 h and 48 h (Thermo Scientific Multiskan Ascent). Additionally, the OD630 for combinations of bacterium/carboxylic acid grown in a 5% CO2 environment were also measured every hour between 0 h and 9 h.
(§4) The experiment was carried out on three different days (thus providing 3 biological replicas) and on each day the experiment was carried out in quadruple (thus providing 4 technical replicas) for each combination of bacterium with carboxylic acid and for each control. For each day and for each combination, the average (mean) of the values obtained (as detailed above) for the four technical replicas was calculated to provide a single value for each combination on each day.

[2] = tested on: beneficial oral bacteria and pathogenic oral bacteria; assay: Metabolic activity, prebiotic effect over the whole panel; format: cell-based; settings: threshold value of 2
Prevotella intermedia [3] = settings: P intermedia, BHI
Method: as §2, §3, §4

Tannerella forsythia = assay: Biofilm growth assay in BHI, crystal violet; format: cell-based; settings: T forsythia
Method: (§1) Late exponential growth phase liquid cultures were prepared by transferring the respective bacterium from blood agar plates to BHI and overnight incubation at 37° C. in an anaerobic atmosphere for A. viscosus, V. parvula, F. nucleatum, P. gingivalis, P. intermedia, T. forsythia, A. naeslundii, and C. sputigena, and in a 5% CO2 environment for S. salivarius, S. sanguinis, S. mitis, A. actinomycetemcomitans, S. mutans, and S. gordonii. […] Additionally, for each bacterium tested, a background control, to correct for background staining, was added. This background control contained the bacterium tested and 0.03 weight % chlorhexidine, as an antiseptic. Plates were incubated as previously described. After 48 hrs the supernatant was removed from the wells of the plates. The wells were washed twice with 1×100 μL/PBS (phosphate buffered saline), fixed for 20 minutes with 96% vol. ethanol (96% vol. solution in water) and the biofilm retained at the bottom of the wells was stained with 1 weight % crystal violet (1 weight % solution in water). […] Quantification of the stained biofilm was performed by measuring the absorbance at 630 nm using a Multiskan Ascent microplate reader (Thermo Scientific).

Veillonella parvula = assay: Biofilm growth assay in BHI, crystal violet; format: cell-based; settings: V parvula
Method: as §1

Streptococcus mutans = assay: Biofilm growth assay in BHI, crystal violet; format: cell-based; settings: S mutans
Method: as §1

Streptococcus salivarius = assay: Biofilm growth assay in BHI, crystal violet; format: cell-based; settings: S salivarius
Method: as §1

Prevotella intermedia [4] = assay: Biofilm growth assay in BHI, crystal violet; format: cell-based; settings: P intermedia
Method: as §1

Streptococcus sanguinis = assay: Biofilm growth assay in BHI, crystal violet; format: cell-based; settings: S sanguinis
Method: as §1

Actinomyces naeslundii = assay: Biofilm growth assay in BHI, crystal violet; format: cell-based; settings: A naeslundii
Method: as §1

Streptococcus gordonii [5] = assay: Biofilm growth assay in BHI, crystal violet; format: cell-based; settings: S gordonii
Method: as §1

[6] = tested on: Aggregatibacter actinomycetemcomitans; assay: Biofilm growth assay in BHI, crystal violet; format: cell-based; settings: A actinomycetemcomitans
Method: as §1

Streptococcus mitis [7] = assay: Biofilm growth assay in BHI, crystal violet; format: cell-based; settings: S mitis
Method: as §1

Capnocytophaga sputigena = assay: Biofilm growth assay in BHI, crystal violet; format: cell-based; settings: C sputigena
Method: as §1

Streptococcus gordonii [8] = settings: S gordonii, BHI
Method: as §2, §3, §4

Streptococcus mitis [9] = settings: S mitis, BHI
Method: as §2, §3, §4

O=C(O)CCC(=O)O [Succinic acid, succinic acid]
extent of growth, maximal OD630 over 48 hr divided by maximal OD of control (control = 1) ([1]; 5 μmol/ml): 0.6497 | extent of growth, maximal OD630 over 48 hr divided by maximal OD of control (control = 1) ([1]; 10 μmol/ml): 0.4197 | extent of growth, maximal OD630 over 48 hr divided by maximal OD of control (control = 1) ([1]; 20 μmol/ml): 0.1940 | extent of growth, maximal OD630 over 48 hr divided by maximal OD of control (control = 1) ([1]; 25 μmol/ml): 0.1968 | prebiotic effect (metabolic activity) ([2]; 24 hrs): exhibited prebiotic effects | prebiotic effect (metabolic activity) ([2]; 48 hrs): exhibited prebiotic effects | extent of growth, maximal OD630 over 48 hr divided by maximal OD of control (control = 1) (Prevotella intermedia [3]; 5 μmol/ml): 0.8288 | extent of growth, maximal OD630 over 48 hr divided by maximal OD of control (control = 1) (Prevotella intermedia [3]; 10 μmol/ml): 0.4471 | extent of growth, maximal OD630 over 48 hr divided by maximal OD of control (control = 1) (Prevotella intermedia [3]; 20 μmol/ml): 0.0944 | extent of growth, maximal OD630 over 48 hr divided by maximal OD of control (control = 1) (Prevotella intermedia [3]; 25 μmol/ml): 0.0921 | biofilm growth, OD at 630 nm (crystal violet) at 48 hrs divided by OD of control (control = 1) (Tannerella forsythia; 5 μmol/ml): 0.3223 | biofilm growth, OD at 630 nm (crystal violet) at 48 hrs divided by OD of control (control = 1) (Tannerella forsythia; 10 μmol/ml): 0.0000 | biofilm growth, OD at 630 nm (crystal violet) at 48 hrs divided by OD of control (control = 1) (Tannerella forsythia; 20 μmol/ml): 0.0000 | biofilm growth, OD at 630 nm (crystal violet) at 48 hrs divided by OD of control (control = 1) (Tannerella forsythia; 25 μmol/ml): 0.0000 | biofilm growth, OD at 630 nm (crystal violet) at 48 hrs divided by OD of control (control = 1) (Veillonella parvula; 5 μmol/ml): 0.9059 | biofilm growth, OD at 630 nm (crystal violet) at 48 hrs divided by OD of control (control = 1) (Veillonella parvula; 10 μmol/ml): 1.0118 | biofilm growth, OD at 630 nm (crystal violet) at 48 hrs divided by OD of control (control = 1) (Veillonella parvula; 20 μmol/ml): 1.1681 | biofilm growth, OD at 630 nm (crystal violet) at 48 hrs divided by OD of control (control = 1) (Veillonella parvula; 25 μmol/ml): 1.4334 | biofilm growth, OD at 630 nm (crystal violet) at 48 hrs divided by OD of control (control = 1) (Streptococcus mutans; 5 μmol/ml): 0.0053 | biofilm growth, OD at 630 nm (crystal violet) at 48 hrs divided by OD of control (control = 1) (Streptococcus mutans; 10 μmol/ml): 0.2498 | biofilm growth, OD at 630 nm (crystal violet) at 48 hrs divided by OD of control (control = 1) (Streptococcus mutans; 20 μmol/ml): 1.9127 | biofilm growth, OD at 630 nm (crystal violet) at 48 hrs divided by OD of control (control = 1) (Streptococcus mutans; 25 μmol/ml): 0.9686 | biofilm growth, OD at 630 nm (crystal violet) at 48 hrs divided by OD of control (control = 1) (Streptococcus salivarius; 5 μmol/ml): 3.7553 | biofilm growth, OD at 630 nm (crystal violet) at 48 hrs divided by OD of control (control = 1) (Streptococcus salivarius; 10 μmol/ml): 1.2358 | biofilm growth, OD at 630 nm (crystal violet) at 48 hrs divided by OD of control (control = 1) (Streptococcus salivarius; 20 μmol/ml): 0.6125 | biofilm growth, OD at 630 nm (crystal violet) at 48 hrs divided by OD of control (control = 1) (Streptococcus salivarius; 25 μmol/ml): 1.7869 | biofilm growth, OD at 630 nm (crystal violet) at 48 hrs divided by OD of control (control = 1) (Prevotella intermedia [4]; 5 μmol/ml): 0.8344 | biofilm growth, OD at 630 nm (crystal violet) at 48 hrs divided by OD of control (control = 1) (Prevotella intermedia [4]; 10 μmol/ml): 0.7023 | biofilm growth, OD at 630 nm (crystal violet) at 48 hrs divided by OD of control (control = 1) (Prevotella intermedia [4]; 20 μmol/ml): 0.0589 | biofilm growth, OD at 630 nm (crystal violet) at 48 hrs divided by OD of control (control = 1) (Prevotella intermedia [4]; 25 μmol/ml): 0.1442 | biofilm growth, OD at 630 nm (crystal violet) at 48 hrs divided by OD of control (control = 1) (Streptococcus sanguinis; 5 μmol/ml): 3.3955 | biofilm growth, OD at 630 nm (crystal violet) at 48 hrs divided by OD of control (control = 1) (Streptococcus sanguinis; 10 μmol/ml): 2.9778 | biofilm growth, OD at 630 nm (crystal violet) at 48 hrs divided by OD of control (control = 1) (Streptococcus sanguinis; 20 μmol/ml): 1.7748 | biofilm growth, OD at 630 nm (crystal violet) at 48 hrs divided by OD of control (control = 1) (Streptococcus sanguinis; 25 μmol/ml): 1.9952 | biofilm growth, OD at 630 nm (crystal violet) at 48 hrs divided by OD of control (control = 1) (Actinomyces naeslundii; 5 μmol/ml): 0.7746 | biofilm growth, OD at 630 nm (crystal violet) at 48 hrs divided by OD of control (control = 1) (Actinomyces naeslundii; 10 μmol/ml): 0.2490 | biofilm growth, OD at 630 nm (crystal violet) at 48 hrs divided by OD of control (control = 1) (Actinomyces naeslundii; 20 μmol/ml): 0.0240 | biofilm growth, OD at 630 nm (crystal violet) at 48 hrs divided by OD of control (control = 1) (Actinomyces naeslundii; 25 μmol/ml): 0.0182 | biofilm growth, OD at 630 nm (crystal violet) at 48 hrs divided by OD of control (control = 1) (Streptococcus gordonii [5]; 5 μmol/ml): 2.3866 | biofilm growth, OD at 630 nm (crystal violet) at 48 hrs divided by OD of control (control = 1) (Streptococcus gordonii [5]; 10 μmol/ml): 4.4978 | biofilm growth, OD at 630 nm (crystal violet) at 48 hrs divided by OD of control (control = 1) (Streptococcus gordonii [5]; 20 μmol/ml): 1.6591 | biofilm growth, OD at 630 nm (crystal violet) at 48 hrs divided by OD of control (control = 1) (Streptococcus gordonii [5]; 25 μmol/ml): 0.5512 | biofilm growth, OD at 630 nm (crystal violet) at 48 hrs divided by OD of control (control = 1) ([6]; 5 μmol/ml): 0.6941 | biofilm growth, OD at 630 nm (crystal violet) at 48 hrs divided by OD of control (control = 1) ([6]; 10 μmol/ml): 0.5093 | biofilm growth, OD at 630 nm (crystal violet) at 48 hrs divided by OD of control (control = 1) ([6]; 20 μmol/ml): 0.0593 | biofilm growth, OD at 630 nm (crystal violet) at 48 hrs divided by OD of control (control = 1) ([6]; 25 μmol/ml): 0.0581 | biofilm growth, OD at 630 nm (crystal violet) at 48 hrs divided by OD of control (control = 1) (Streptococcus mitis [7]; 5 μmol/ml): 0.1603 | biofilm growth, OD at 630 nm (crystal violet) at 48 hrs divided by OD of control (control = 1) (Streptococcus mitis [7]; 10 μmol/ml): 0.1188 | biofilm growth, OD at 630 nm (crystal violet) at 48 hrs divided by OD of control (control = 1) (Streptococcus mitis [7]; 20 μmol/ml): 0.0851 | biofilm growth, OD at 630 nm (crystal violet) at 48 hrs divided by OD of control (control = 1) (Streptococcus mitis [7]; 25 μmol/ml): 0.1085 | biofilm growth, OD at 630 nm (crystal violet) at 48 hrs divided by OD of control (control = 1) (Capnocytophaga sputigena; 5 μmol/ml): 2.0880 | biofilm growth, OD at 630 nm (crystal violet) at 48 hrs divided by OD of control (control = 1) (Capnocytophaga sputigena; 10 μmol/ml): 2.1577 | biofilm growth, OD at 630 nm (crystal violet) at 48 hrs divided by OD of control (control = 1) (Capnocytophaga sputigena; 20 μmol/ml): 0.2256 | biofilm growth, OD at 630 nm (crystal violet) at 48 hrs divided by OD of control (control = 1) (Capnocytophaga sputigena; 25 μmol/ml): 0.3202 | extent of growth, maximal OD630 over 48 hr divided by maximal OD of control (control = 1) (Streptococcus gordonii [8]; 5 μmol/ml): 0.8555 | extent of growth, maximal OD630 over 48 hr divided by maximal OD of control (control = 1) (Streptococcus gordonii [8]; 10 μmol/ml): 0.7021 | extent of growth, maximal OD630 over 48 hr divided by maximal OD of control (control = 1) (Streptococcus gordonii [8]; 20 μmol/ml): 0.2928 | extent of growth, maximal OD630 over 48 hr divided by maximal OD of control (control = 1) (Streptococcus gordonii [8]; 25 μmol/ml): 0.1860 | extent of growth, maximal OD630 over 48 hr divided by maximal OD of control (control = 1) (Streptococcus mitis [9]; 5 μmol/ml): 0.7273 | extent of growth, maximal OD630 over 48 hr divided by maximal OD of control (control = 1) (Streptococcus mitis [9]; 10 μmol/ml): 0.7615 | extent of growth, maximal OD630 over 48 hr divided by maximal OD of control (control = 1) (Streptococcus mitis [9]; 20 μmol/ml): 0.4339 | extent of growth, maximal OD630 over 48 hr divided by maximal OD of control (control = 1) (Streptococcus mitis [9]; 25 μmol/ml): 0.1591
